Experimental findings from US6872742B2, “Substituted cyclic amine metalloprotease inhibitors” (The Procter & Gamble Company, priority 1996, dated 2005) are described below.

Common to all, as to format: in vivo
Assay [1] has as its system patient suffering from chemical burns. Kind of assay: Example D: topical composition applied by a patient suffering from chemical burns. As to conditions: 0.20% w/v topical composition at each dressing change (b.i.d.). The source says: (§1) The compounds of the invention are useful to prepare compositions for the treatment of ailments and the like. […] In each case the compounds formula I may be substituted for the example compound shown below with similar results. […] The skilled practitioner will appreciate that the examples provide guidance and may be varied based on condition and the patient. A topical composition for local administration, according to the present invention, is made comprising: A patient suffering from chemical burns applies the composition at each dressing change (b.i.d.).

Assay [2] has as its system human subject suffering from osteoarthritis. Nature of the assay: Example B: capsule given daily to a subject suffering from osteoarthritis. The note with it: capsule containing 70 mg daily for 5 years, 90 kg person. The source says: The compounds of the invention are useful to prepare compositions for the treatment of ailments and the like. […] In each case the compounds formula I may be substituted for the example compound shown below with similar results.
The skilled practitioner will appreciate that the examples provide guidance and may be varied based on condition and the patient.
A capsule for oral administration, according to the present invention, is made comprising:
A human subject weighing 90 kg (198 lbs), suffering from osteoarthritis, is treated by a method of this invention. Specifically, for 5 years, a capsule containing 70 mg of the compound of Example 3 is administered daily to said subject.

The subject of assay [3] is human subject suffering from rheumatoid arthritis. Nature of the assay: Example A: tablets given orally to a subject suffering from rheumatoid arthritis. As to conditions: tablet with 15 mg compound, three tablets per day orally for 2 years, 60 kg person.
Excerpt: as §1, with “A tablet” for “A topical”, “for oral” for “for local”, “A human subject weighing 60 kg (132 lbs),” for “A patient”, “from rheumatoid arthritis, is treated by a method of this invention. Specifically, for 2 years, a regimen of three tablets per day is administered orally to said subject.” for “from chemical burns applies the composition at each dressing change (b.i.d.).”

Assay [4] deals with human subject with a premetastatic tumor. Kind of assay: Example G: parenteral suspension injected next to a premetastatic tumor. As to conditions: 100 mg/ml suspension, approximately 2.0 ml injected beside the tumor twice daily for approximately 30 days. The source says: The compounds of the invention are useful to prepare compositions for the treatment of ailments and the like. […] In each case the compounds formula I may be substituted for the example compound shown below with similar results. […] The skilled practitioner will appreciate that the examples provide guidance and may be varied based on condition and the patient. A composition for parenteral administration is made comprising: The above ingredients are mixed, forming a suspension. Approximately 2.0 ml of the suspension is administered, via injection, to a human subject with a premetastatic tumor. The injection site juxtaposes the tumor. This dosage is repeated twice daily, for approximately 30 days.

Assay [5] concerns asthma sufferer. Nature of the assay: Example E: inhalation aerosol used by an asthma sufferer. As to conditions: 5.0% w/v aerosol, 0.01 mL sprayed into the mouth while inhaling. How it is done: The compounds of the invention are useful to prepare compositions for the treatment of ailments and the like. […] In each case the compounds formula I may be substituted for the example compound shown below with similar results. […] The skilled practitioner will appreciate that the examples provide guidance and may be varied based on condition and the patient. A inhalation aerosol composition, according to the present invention, is made comprising: An asthma sufferer sprays 0.01 mL via a pump actuator into the mouth while inhaling.

Assay [6] concerns patient having deep corneal abrasion. Nature of the assay: Example C: saline-based eye drop applied by a patient having deep corneal abrasion. As to conditions: 5% w/w drop applied to each eye twice a day. The source says:
The compounds of the invention are useful to prepare compositions for the treatment of ailments and the like. […] In each case the compounds formula I may be substituted for the example compound shown below with similar results. […] The skilled practitioner will appreciate that the examples provide guidance and may be varied based on condition and the patient. A saline-based composition for local administration, according to the present invention, is made comprising: A patient having deep corneal abrasion applies the drop to each eye twice a day.

Consider `COc1ccc(S(=O)(=O)N2C[C@H](O)C[C@H]2C(=O)NO)cc1` [Example 3, (1N)-4-Methoxyphenylsulfonyl-(2S)-N-hydroxycarboxanido-(4R)-hydroxypyrrolidine], for which, in assay [1], the scarring result is on record as “Scarring is substantially diminished”. Besides, in assay [2], the “orthoscopy finding at the end of the treatment period (erosion/fibrillation of the articular cartilage)” value is “no further advancement of erosion/fibrillation of the articular cartilage”.

For the compound `COc1ccc(S(=O)(=O)N2C[C@H](Sc3nccn3C)C[C@@H]2C(=O)NO)cc1` [Example 9, (1N)-4-Methoxyphenylsulfonyl-(2R)-N-hydroxycarboxado-(4R)-[(1N)-methyl-2-mercaptoimidazyl]-pyrrolidine], the “findings on examination at the end of the treatment period (inflammation, mobility, pain)” value in assay [3] was “reduced inflammation, and improved mobility without concomitant pain”.

On to `COc1ccc(S(=O)(=O)N2C[C@@H](O)C[C@H]2C(=O)NO)cc1` [Example 4, (1N)-4-Methoxyphenylsulfonyl-(2S)-N-hydroxycarboxanido-(4S)-hydroxy-pyrrolidine], for which the “symptoms of the disease after 30 days” value in assay [4] is given as “symptoms of the disease subside”.

As for `COc1ccc(S(=O)(=O)N2C[C@@H](O)C[C@@H]2C(=O)NO)cc1` [Example 2, (1N)-4-Methoxyphenylsulfonyl-(2R)-N-hydroxycarboxamido-(4S)-hydroxypyrrolidine], in assay [5], the asthma symptoms entry is “Asthma symptoms are diminished”.

`COc1ccc(S(=O)(=O)N2C[C@@H](Oc3ccccc3)C[C@@H]2C(=O)NO)cc1` [Example 13, (1N)-4-Methoxyphenylsulfonyl-(2R)-N-hydroxycarboxamido-(4S)-phenoxypyrrolidine]: the corneal healing result in assay [6] is on record as “Healing is speeded, with no visual sequelae”.
